Values after ≈ are worked out from the molar mass of the structure shown. Starred links: 1 amine or outer side, 2 acyl side, 3 side chain; linkers in the order of their positions; H or OH if unused. Non-standard residues stand in square brackets, D forms with d. Residues, ends and D or L forms follow the SMILES beside them. Groups on a side chain read outwards from the residue. N(2-Aminoethyl)Gly = O=C(CN(CCN[*:3])[*:1])[*:2]; hLeu = CC(C)CC[C@H](N)C(=O)O; NBuGly = CCCCNCC(=O)O; AEA = NCCOCC(=O)O; Ava = NCCCCC(=O)O; βAla = NCCC(=O)O
What was measured:
Details in all cases: 24 h
C. albicans = system: C. albicans
C. glabrata = system: C. glabrata
C. parapsilosis = system: C. parapsilosis
C. tropicalis = system: C. tropicalis
C. dubliniensis = system: C. dubliniensis

Row | Structure (SMILES) | MIC C. albicans (C. albicans) | MIC C. glabrata (C. glabrata) | MIC C. parapsilosis (C. parapsilosis) | MIC C. tropicalis (C. tropicalis) | MIC C. dubliniensis (C. dubliniensis)
1 | N=C(N)NCCC[C@H](NC(=O)[C@@H](CCCNC(=N)N)NC(=O)[C@H](CCCNC(=N)N)NC(=O)[C@@H](CCCNC(=N)N)NC(=O)CCNC(=O)[C@H](CCCNC(=N)N)NC(=O)[C@@H](CCCNC(=N)N)NC(=O)[C@H](CCCNC(=N)N)NC(=O)[C@@H](CCCNC(=N)N)NC(=O)CCNC(=O)[C@@H](CCCNC(=N)N)NC(=O)[C@H](CCCNC(=N)N)NC(=O)[C@@H](CCCNC(=N)N)NC(=O)CCNC(=O)[C@H](CCCNC(=N)N)NC(=O)[C@H](CCCNC(=N)N)NC(=O)[C@@H](N)CCCNC(=N)N)C(N)=O [SEQ ID NO: 9, RRR-(Apr)-rRr-(Apr)-rRrR-(Apr)-rRrR-NH2] (H-RRR[βAla][dR]R[dR][βAla][dR]R[dR]R[βAla][dR]R[dR]R-NH2) | 0.5 µg/mL (≈ 0.207 µM) | 2 µg/mL (≈ 0.828 µM) | 0.5 µg/mL (≈ 0.207 µM) | 0.5 µg/mL (≈ 0.207 µM) | 0.5 µg/mL (≈ 0.207 µM)
2 | N=C(N)NCCC[C@@H](N)C(=O)N[C@@H](CCCNC(=N)N)C(=O)N[C@H](CCCNC(=N)N)C(=O)NCCCCC(=O)N[C@H](CCCNC(=N)N)C(=O)N[C@@H](CCCNC(=N)N)C(=O)N[C@H](CCCNC(=N)N)C(=O)NCCNCC(=O)N[C@H](CCCNC(=N)N)C(=O)N[C@@H](CCCNC(=N)N)C(=O)N[C@H](CCCNC(=N)N)C(=O)N[C@@H](CCCNC(=N)N)C(=O)NCCCCC(=O)N[C@H](CCCNC(=N)N)C(=O)N[C@@H](CCCNC(=N)N)C(=O)N[C@H](CCCNC(=N)N)C(=O)N[C@@H](CCCNC(=N)N)C(N)=O [SEQ ID NO: 42, rRr-(Ava)-rRr-(Aeg)-rRrR-(Ava)-rRrR-NH2] | 1 µg/mL (≈ 0.4 µM) | 1 µg/mL (≈ 0.4 µM) | 0.5 µg/mL (≈ 0.2 µM) | 0.5 µg/mL (≈ 0.2 µM) | 0.5 µg/mL (≈ 0.2 µM)
3 | N=C(N)NCCC[C@@H](N)C(=O)N[C@@H](CCCNC(=N)N)C(=O)N[C@H](CCCNC(=N)N)C(=O)NCCCCC(=O)N[C@H](CCCNC(=N)N)C(=O)N[C@@H](CCCNC(=N)N)C(=O)N[C@H](CCCNC(=N)N)C(=O)NCCOCC(=O)N[C@H](CCCNC(=N)N)C(=O)N[C@@H](CCCNC(=N)N)C(=O)N[C@H](CCCNC(=N)N)C(=O)N[C@@H](CCCNC(=N)N)C(=O)NCCCCC(=O)N[C@H](CCCNC(=N)N)C(=O)N[C@@H](CCCNC(=N)N)C(=O)N[C@H](CCCNC(=N)N)C(=O)N[C@@H](CCCNC(=N)N)C(N)=O [SEQ ID NO: 48, rRr-(Ava)-rRr-(Aea)-rRrR-(Ava)-rRrR-NH2] (H-[dR]R[dR][Ava][dR]R[dR][AEA][dR]R[dR]R[Ava][dR]R[dR]R-NH2) | 0.5 µg/mL (≈ 0.2 µM) | 1 µg/mL (≈ 0.4 µM) | 0.5 µg/mL (≈ 0.2 µM) | 0.5 µg/mL (≈ 0.2 µM) | 0.5 µg/mL (≈ 0.2 µM)
4 | N=C(N)NCCC[C@@H](N)C(=O)N[C@@H](CCCNC(=N)N)C(=O)N[C@H](CCCNC(=N)N)C(=O)NCCCCC(=O)N[C@H](CCCNC(=N)N)C(=O)N[C@@H](CCCNC(=N)N)C(=O)N[C@H](CCCNC(=N)N)C(=O)NCCCCC(=O)N[C@H](CCCNC(=N)N)C(=O)N[C@@H](CCCNC(=N)N)C(=O)N[C@H](CCCNC(=N)N)C(=O)N[C@@H](CCCNC(=N)N)C(=O)NCCNCC(=O)N[C@H](CCCNC(=N)N)C(=O)N[C@@H](CCCNC(=N)N)C(=O)N[C@H](CCCNC(=N)N)C(=O)N[C@@H](CCCNC(=N)N)C(N)=O [SEQ ID NO: 43, rRr-(Ava)-rRr-(Ava)-rRrR-(Aeg)-rRrR-NH2] | 1 µg/mL (≈ 0.4 µM) | 1 µg/mL (≈ 0.4 µM) | 0.5 µg/mL (≈ 0.2 µM) | 0.5 µg/mL (≈ 0.2 µM) | 0.5 µg/mL (≈ 0.2 µM)
5 | CCCCN(CC(=O)N[C@H](CCCNC(=N)N)C(=O)N[C@@H](CCCNC(=N)N)C(=O)N(CCCC)CC(=O)N[C@H](CCCNC(=N)N)C(=O)N[C@@H](CCCNC(=N)N)C(=O)N[C@H](CCCNC(=N)N)C(=O)N(CCCC)CC(=O)N[C@H](CCCNC(=N)N)C(=O)N[C@@H](CCCNC(=N)N)C(=O)N[C@H](CCCNC(=N)N)C(N)=O)C(=O)[C@H](CCCNC(=N)N)NC(=O)[C@H](N)CCCNC(=N)N [SEQ ID NO: 36, rR-(ButylGly)-rR-(ButylGly)-rRr-(ButylGly)-rRr-NH2] (H-[dR]R[NBuGly][dR]R[NBuGly][dR]R[dR][NBuGly][dR]R[dR]-NH2) | 0.5 µg/mL (≈ 0.261 µM) | 4 µg/mL (≈ 2.09 µM) | 16 µg/mL (≈ 8.34 µM) | 2 µg/mL (≈ 1.04 µM) | 2 µg/mL (≈ 1.04 µM)
6 | N=C(N)NCCC[C@@H](N)C(=O)N[C@@H](CCCNC(=N)N)C(=O)N[C@H](CCCNC(=N)N)C(=O)NCCOCC(=O)N[C@H](CCCNC(=N)N)C(=O)N[C@@H](CCCNC(=N)N)C(=O)N[C@H](CCCNC(=N)N)C(=O)NCCCCC(=O)N[C@H](CCCNC(=N)N)C(=O)N[C@@H](CCCNC(=N)N)C(=O)N[C@H](CCCNC(=N)N)C(=O)N[C@@H](CCCNC(=N)N)C(=O)NCCCCC(=O)N[C@H](CCCNC(=N)N)C(=O)N[C@@H](CCCNC(=N)N)C(=O)N[C@H](CCCNC(=N)N)C(=O)N[C@@H](CCCNC(=N)N)C(N)=O [SEQ ID NO: 47, rRr-(Aea)-rRr-(Ava)-rRrR-(Ava)-rRrR-NH2] (H-[dR]R[dR][AEA][dR]R[dR][Ava][dR]R[dR]R[Ava][dR]R[dR]R-NH2) | 1 µg/mL (≈ 0.4 µM) | 1 µg/mL (≈ 0.4 µM) | 0.5 µg/mL (≈ 0.2 µM) | 0.5 µg/mL (≈ 0.2 µM) | 0.5 µg/mL (≈ 0.2 µM)
7 | N=C(N)NCCC[C@@H](N)C(=O)N[C@@H](CCCNC(=N)N)C(=O)N[C@H](CCCNC(=N)N)C(=O)NCCNCC(=O)N[C@H](CCCNC(=N)N)C(=O)N[C@@H](CCCNC(=N)N)C(=O)N[C@H](CCCNC(=N)N)C(=O)NCCCCC(=O)N[C@H](CCCNC(=N)N)C(=O)N[C@@H](CCCNC(=N)N)C(=O)N[C@H](CCCNC(=N)N)C(=O)N[C@@H](CCCNC(=N)N)C(=O)NCCCCC(=O)N[C@H](CCCNC(=N)N)C(=O)N[C@@H](CCCNC(=N)N)C(=O)N[C@H](CCCNC(=N)N)C(=O)N[C@@H](CCCNC(=N)N)C(N)=O [SEQ ID NO: 41, rRr-(Aeg)-rRr-(Ava)-rRrR-(Ava)-rRrR-NH2] (H-[N(2-Aminoethyl)Gly]([dR-Arg-dR])[dR]R[dR][Ava][dR]R[dR]R[Ava][dR]R[dR]R-NH2) | 1 µg/mL (≈ 0.4 µM) | 2 µg/mL (≈ 0.799 µM) | 1 µg/mL (≈ 0.4 µM) | 1 µg/mL (≈ 0.4 µM) | 0.5 µg/mL (≈ 0.2 µM)
8 | N=C(N)NCCC[C@@H](N)C(=O)N[C@@H](CCCNC(=N)N)C(=O)N[C@H](CCCNC(=N)N)C(=O)NCCCCC(=O)N[C@H](CCCNC(=N)N)C(=O)N[C@@H](CCCNC(=N)N)C(=O)N[C@H](CCCNC(=N)N)C(=O)NCCOCC(=O)N[C@H](CCCNC(=N)N)C(=O)N[C@@H](CCCNC(=N)N)C(=O)N[C@H](CCCNC(=N)N)C(=O)N[C@@H](CCCNC(=N)N)C(=O)NCCOCC(=O)N[C@H](CCCNC(=N)N)C(=O)N[C@@H](CCCNC(=N)N)C(=O)N[C@H](CCCNC(=N)N)C(=O)N[C@@H](CCCNC(=N)N)C(N)=O [SEQ ID NO: 51, rRr-(Ava)-rRr-(Aea)-rRrR-(Aea)-rRrR-NH2] (H-[dR]R[dR][Ava][dR]R[dR][AEA][dR]R[dR]R[AEA][dR]R[dR]R-NH2) | 0.5 µg/mL (≈ 0.2 µM) | 1 µg/mL (≈ 0.399 µM) | 0.25 µg/mL (≈ 0.0998 µM) | 0.5 µg/mL (≈ 0.2 µM) | 0.25 µg/mL (≈ 0.0998 µM)
9 | N=C(N)NCCC[C@@H](N)C(=O)N[C@@H](CCCNC(=N)N)C(=O)N[C@H](CCCNC(=N)N)C(=O)NCCC(=O)N[C@@H](CCCNC(=N)N)C(=O)N[C@@H](CCCNC(=N)N)C(=O)N[C@@H](CCCNC(=N)N)C(=O)NCCC(=O)N[C@H](CCCNC(=N)N)C(=O)N[C@@H](CCCNC(=N)N)C(=O)N[C@H](CCCNC(=N)N)C(=O)N[C@@H](CCCNC(=N)N)C(=O)NCCC(=O)N[C@H](CCCNC(=N)N)C(=O)N[C@@H](CCCNC(=N)N)C(=O)N[C@H](CCCNC(=N)N)C(=O)N[C@@H](CCCNC(=N)N)C(N)=O [SEQ ID NO: 10, rRr-(Apr)-RRR-(Apr)-rRrR-(Apr)-rRrR-NH2] (H-[dR]R[dR][βAla]RRR[βAla][dR]R[dR]R[βAla][dR]R[dR]R-NH2) | 0.5 µg/mL (≈ 0.207 µM) | 2 µg/mL (≈ 0.828 µM) | 0.5 µg/mL (≈ 0.207 µM) | 0.5 µg/mL (≈ 0.207 µM) | 0.5 µg/mL (≈ 0.207 µM)
10 | CC(C)CC[C@H](NC(=O)[C@@H](CCCNC(=N)N)NC(=O)[C@H](CCCNC(=N)N)NC(=O)[C@@H](CCCNC(=N)N)NC(=O)[C@@H]1CCCN1C(=O)[C@H](CCCNC(=N)N)NC(=O)[C@@H](CCCNC(=N)N)NC(=O)[C@H](CCCNC(=N)N)NC(=O)[C@@H](CCCNC(=N)N)NC(=O)[C@@H]1CCCN1C(=O)[C@@H](CCCNC(=N)N)NC(=O)[C@H](CCCNC(=N)N)NC(=O)[C@@H](CCCNC(=N)N)NC(=O)[C@@H]1CCCN1C(=O)[C@@H](CCCNC(=N)N)NC(=O)[C@H](CCCNC(=N)N)NC(=O)[C@H](N)CCCNC(=N)N)C(N)=O [SEQ ID NO: 93, rRr-P-rRr-P-rRrR-P-rRr(hLeu)-NH2] (H-[dR]R[dR]P[dR]R[dR]P[dR]R[dR]RP[dR]R[dR][hLeu]-NH2) | 0.5 µg/mL (≈ 0.203 µM) | 1 µg/mL (≈ 0.406 µM) | 1 µg/mL (≈ 0.406 µM) | 0.5 µg/mL (≈ 0.203 µM) | 0.5 µg/mL (≈ 0.203 µM)

Source: US20240360177A1, “PEPTIDES WITH ANTIMICROBIAL ACTIVITIES” (priority 2021, published 2024)
